Data: paper PMC3323550, “Functional Characterization of EngA^MS, a P-Loop GTPase of Mycobacterium smegmatis” (PLoS ONE, 2012)

Legend:
[1] = molecular target: T1, EngA^MS (MSMEG_3738) (Mycolicibacterium smegmatis, UniProt A0QYP9); assay: colorimetric Pi release GTPase assay; assay type: biochemical
T1 construct: gene der
T1 sequence (A0QYP9 1-471): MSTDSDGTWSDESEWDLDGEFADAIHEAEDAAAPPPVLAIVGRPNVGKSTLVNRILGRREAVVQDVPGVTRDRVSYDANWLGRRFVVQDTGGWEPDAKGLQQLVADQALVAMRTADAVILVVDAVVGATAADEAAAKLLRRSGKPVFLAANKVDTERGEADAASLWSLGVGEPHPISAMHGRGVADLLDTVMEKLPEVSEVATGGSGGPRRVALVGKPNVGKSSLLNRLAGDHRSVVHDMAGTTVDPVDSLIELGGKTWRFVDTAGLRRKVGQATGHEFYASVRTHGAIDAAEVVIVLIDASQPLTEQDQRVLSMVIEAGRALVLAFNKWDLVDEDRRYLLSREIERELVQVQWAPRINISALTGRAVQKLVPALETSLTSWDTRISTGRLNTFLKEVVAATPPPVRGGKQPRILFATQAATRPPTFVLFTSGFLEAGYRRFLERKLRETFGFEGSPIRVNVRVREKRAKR

[2] = molecular target: T2, EngA^MS (MSMEG_3738) (Mycolicibacterium smegmatis, UniProt A0QYP9, D154N); assay: fluorescent mant-nucleotide binding assay, single concentration; details: 4 µM protein, 1 µM mant-GDP, 40 mM Tris-Cl pH 8.0, 2 mM MgCl2, 40% glycerol, room temperature; labelled compound
T2 construct: gene der
T2 sequence (A0QYP9 entry or part of it D154N): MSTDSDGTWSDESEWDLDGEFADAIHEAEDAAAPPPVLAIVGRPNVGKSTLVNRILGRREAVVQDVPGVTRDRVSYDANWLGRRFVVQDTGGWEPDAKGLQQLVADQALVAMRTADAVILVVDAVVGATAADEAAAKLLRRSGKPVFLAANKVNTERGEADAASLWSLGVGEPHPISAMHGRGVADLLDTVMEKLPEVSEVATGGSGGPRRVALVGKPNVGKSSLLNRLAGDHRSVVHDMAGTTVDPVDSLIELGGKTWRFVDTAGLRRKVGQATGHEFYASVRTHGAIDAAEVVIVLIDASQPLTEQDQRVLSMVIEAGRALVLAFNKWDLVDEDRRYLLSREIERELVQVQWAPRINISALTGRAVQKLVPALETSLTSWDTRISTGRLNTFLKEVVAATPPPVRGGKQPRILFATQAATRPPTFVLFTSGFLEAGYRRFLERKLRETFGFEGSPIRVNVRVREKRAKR

[3] = molecular target: T3, EngA^MS (MSMEG_3738) (Mycolicibacterium smegmatis, UniProt A0QYP9, D331N); assay: as above; details: 4 µM protein, 1 µM mant-GDP, 40 mM Tris-Cl pH 8.0, 2 mM MgCl2, 40% glycerol, room temperature; labelled compound
T3 construct: gene der
T3 sequence (A0QYP9 entry or part of it D331N): as the sequence (A0QYP9 entry or part of it D154N) above, with N154D, D331N counted along it

[4] = substrate: Nc1nc2c(ncn2[C@@H]2O[C@H](COP(=O)(O)OP(=O)(O)OP(=O)(O)O)[C@@H](O)[C@H]2O)c(=O)[nH]1; assay: colorimetric Pi release GTPase assay; assay type: biochemical, Mycolicibacterium smegmatis; details: 40 mM Tris-Cl pH 8.0, 2 mM MgCl2, 40% glycerol, 1 h, no GDP

## Nc1nc2c(ncn2[C@@H]2O[C@H](COP(=O)(O)OP(=O)(O)O)[C@@H](O)[C@H]2O)c(=O)[nH]1 [GDP]
[1]
  inhibition at 200 µM: 40%

## CNc1ccccc1C(=O)O[C@H]1[C@@H](O)[C@H](n2cnc3c(=O)[nH]c(N)nc32)O[C@@H]1COP(=O)(O)OP(=O)(O)O [mant-GDP]
[2]
  % reduction in binding affinity vs wild-type: ~ 50%
[3]
  % reduction in binding affinity vs wild-type: ~ 50%

B1: EngA^MS (MSMEG_3738) (Mycolicibacterium smegmatis MC2 155) (protein)
chain: T1 sequence (A0QYP9 1-471)
[4]
  Km: 39 µM
  kcat: 8.3e-05 s⁻¹
